Assay: xn = mol fraction of the nth substance listed
Details: 101 kPa, Liquid; for speed of sound: Pulse-echo method; for mass density: Vibrating tube method

ClC(Cl)(Cl)Br [bromotrichloromethane] + CCCCCCC
Details | mass density, 293.15 K [kg/m3] | mass density, 298.15 K [kg/m3] | mass density, 303.15 K [kg/m3] | mass density, 308.15 K [kg/m3] | mass density, 313.15 K [kg/m3] | speed of sound, 293.15 K [m/s] | speed of sound, 298.15 K [m/s] | speed of sound, 303.15 K [m/s] | speed of sound, 308.15 K [m/s] | speed of sound, 313.15 K [m/s]
x1 = 0.0527 | 731.54 | 727.03 | 722.5 | 717.94 | 713.35 | 1126.6 | 1105.8 | 1085.1 | 1064.5 | 1044
x1 = 0.1116 | 786.88 | 782.07 | 777.25 | 772.39 | 767.5 | 1100.3 | 1080.2 | 1060.4 | 1040.5 | 1020.7
x1 = 0.152 | 826.09 | 821.09 | 816.04 | 810.96 | 805.84 | 1083.8 | 1064.4 | 1044.9 | 1025.3 | 1005.8
x1 = 0.2038 | 878.08 | 872.78 | 867.43 | 862.07 | 856.67 | 1064.1 | 1045.2 | 1026 | 1007 | 988.3
x1 = 0.2512 | 927.29 | 921.75 | 916.16 | 910.53 | 904.88 | 1047.4 | 1028.9 | 1010.4 | 992 | 973.6
x1 = 0.2988 | 978.53 | 972.69 | 966.84 | 960.93 | 955.01 | 1031.9 | 1013.7 | 995.8 | 977.7 | 959.8
x1 = 0.3556 | 1041.97 | 1035.81 | 1029.61 | 1023.38 | 1017.12 | 1015 | 997.3 | 979.7 | 962.2 | 944.8
x1 = 0.4027 | 1096.65 | 1090.21 | 1083.75 | 1077.23 | 1070.68 | 1001.9 | 984.7 | 967.5 | 950.4 | 933.3
x1 = 0.4603 | 1166.3 | 1159.5 | 1152.66 | 1145.8 | 1138.9 | 987.5 | 970.6 | 953.9 | 937.2 | 920.7
x1 = 0.4989 | 1214.82 | 1207.8 | 1200.71 | 1193.57 | 1186.41 | 978.4 | 962 | 945.5 | 929.2 | 912.9
x1 = 0.5537 | 1286.16 | 1278.76 | 1271.34 | 1263.88 | 1256.37 | 966.7 | 950.6 | 934.7 | 918.8 | 902.9
x1 = 0.5961 | 1343.68 | 1336 | 1328.29 | 1320.53 | 1312.74 | 958.4 | 942.8 | 927.1 | 911.3 | 895.9
x1 = 0.6562 | 1428.79 | 1420.68 | 1412.54 | 1404.37 | 1396.16 | 948 | 932.8 | 917.4 | 902.2 | 887.1
x1 = 0.7088 | 1506.86 | 1498.38 | 1489.86 | 1481.3 | 1472.71 | 940.1 | 925.2 | 910.3 | 895.4 | 880.6
x1 = 0.7486 | 1568.29 | 1559.53 | 1550.71 | 1541.85 | 1532.96 | 934.8 | 920 | 905.3 | 890.7 | 876.2
x1 = 0.8001 | 1651.09 | 1641.91 | 1632.7 | 1623.44 | 1614.16 | 929 | 914.5 | 900.1 | 885.8 | 871.5
x1 = 0.8456 | 1727.53 | 1717.98 | 1708.38 | 1698.77 | 1689.12 | 924.6 | 910.4 | 896.2 | 882.2 | 868.2
x1 = 0.899 | 1821.57 | 1811.56 | 1801.52 | 1791.47 | 1781.35 | 920.6 | 906.7 | 892.8 | 879 | 865.3
x1 = 0.9521 | 1919.55 | 1909.09 | 1898.58 | 1888.06 | 1877.49 | 918 | 904.4 | 890.7 | 877.2 | 863.7
x1 = 1 | 2013.06 | 2002.14 | 1991.2 | 1980.24 | 1969.25 | 917.1 | 903.6 | 890.2 | 876.8 | 863.6

Reference: the NIST ThermoML archive (doi:10.1021/je300775u)
